Experimental data as given in patent US20250281444A1, “COMPOUND WITH NEW SKELETON OF URSANE TRITERPENOID - ENT-KAURANE DITERPENOID DIMER, AND PREPARATION METHOD THEREOF AND APPLICATION THEREOF” (NANJING UNIVERSITY OF CHINESE MEDICINE, priority 2025, published 2025).
In brackets after ≈: the same amount, converted by molar mass. Read-outs that look alike come from different tables or passages of the source.

Legend:
Format in all cases: cell-based
[1] = tested on: colon cancer cell line HT-29; assay: cells; settings: for IC50: 72 hours, CCK-8, read-out: IC50 ± SD, HT-29
Protocol: (§1) A pancreatic cancer cell line MIA PaCa-2, a colon cancer cell line HT-29, a lung cancer cell line A549, and a liver cancer cell line HepG2 (cell bank of Chinese Academy of Sciences) were cultured in a DMEM culture solution containing 10% fetal bovine serum (Gibco Company) at 37° C. under 5% CO2. HT-29, A549 and HepG2 cell culture media were supplemented with 10% FBS and 1% PSN, and a MIA PaCa-2 cell culture medium was supplemented with 10% FBS, 2.5% HS and 1% PSN.
(§2) Different volumes of DMEM culture media were added to dilute the compounds into different concentrations. Meanwhile, a DMEM culture medium containing 0.1% DMSO was used as a negative control.
(§3) Tumor cells were suspended in a culture medium, MIA PaCa-2, HT-29 and HepG2 cells were inoculated into a 96-well plate at a cell density of 8000, A549 cells were inoculated into a 96-well plate at a cell density of 3000 (100 μL/well), and the cells were cultured at 37° C. under 5% CO2 for 24 hours. In a logarithmic growth phase of the tumor cell lines, different concentrations of compounds (0, 0.004, 0.04, 0.4, 4, and 40 μM) were added to culture the cells at 37° C. under 5% CO2 for 72 hours.
(§4) After 72 hours of interaction between the drugs and the tumor cells, 10 μL of CCK-8 solution was added into each well to incubate the cells in a sterile incubator for 1 hour, and then the solution was taken out to determine an OD value by a microplate reader at a wavelength of 450 nm. IC50 (median inhibitory concentration) values of the compounds were calculated by GraphPad Prism 8 software, and 5-FU and Carboplatin were used as positive controls.

[2] = tested on: liver cancer cell line HepG2; assay: cells; settings: for IC50: 72 hours, CCK-8, read-out: IC50 ± SD, HepG2
Protocol: as §1, §2, §3, §4

Candida albicans SC5314 = assay: MIC, compound 1 alone and combined with amphotericin B
From the text: (§5) Helicobacter pylori (G27 and HP129) and Candida albicans (SC5314 and C5) both came from Professor Hongkai Bi's laboratory of Nanjing Medical University. Main culture mediums and main reagents: Colombian culture medium, LB culture medium, selective antibiotics (metronidazole and amphotericin B), serum, and the like.
(§6) LB culture medium: 15 g/L glucose, 10 g/L yeast extract, 5 g/L peptone, and 10 g/L sodium chloride.
(§7) (1) Sample solutions of the compounds 1 and 2 prepared in Embodiment 1 were configured to have a concentration of 2 mg/mL.
(§8) (2) In preparation by a MIC plate, a first well was added with 173.6 μL of culture medium and then added with 6.4 μL of antibacterial drug, and dilution was carried out by multiple proportions to a 7th well; and an 8th well was not added with the drug, but was reserved with 90 μL of culture medium to serve as a control with bacteria but no drug.
(§9) (4) In inoculation, 10 μL of bacterial solution was added into the 1st to 8th wells (a concentration of the bacterial solution in each well was about 1.0×10^6 CFU/mL). Results were judged after 72 hours of culture. Drug concentrations from the 1st to 7th wells were 64 μg/mL, 32 μg/mL, 16 μg/mL, 8 μg/mL, 4 μg/mL, 2 μg/mL, and 1 μg/mL respectively.
(§10) (5) In result judgment, a lowest drug concentration capable of completely inhibiting the growth of bacteria in the wells was MIC. The test was only meaningful when the bacteria in the 8th well of the positive control well (without antibiotics) grew obviously. When there was a single drift in a microdilution method, a highest drug concentration capable of inhibiting the growth of bacteria should be recorded. If there were many drifts, the results should not be reported, and the test should be repeated. Each drug was tested repeatedly for 3 times.

Candida albicans C5 = assay: as above
From the text: as §5, §6, §7, §8, §9, §10

[3] = tested on: lung cancer cell line A549; settings: for IC50: 72 hours, CCK-8, read-out: IC50 ± SD, A549
Protocol: as §1, §2, §3, §4

[4] = tested on: pancreatic cancer cell line MIA PaCa-2; settings: for IC50: 72 hours, CCK-8, read-out: IC50 ± SD, MIA PaCa-2
Protocol: as §1, §2, §3, §4

[5] = tested on: Helicobacter pylori H. pylori G27; assay: Determination of MIC (microdilution); settings: 72 hours of culture
Protocol: as §5
(§11) Colombian liquid culture medium: 29.0 g of Colombian liquid culture medium was accurately weighed, heated, and dissolved in 1000 mL of double distilled water, and the culture medium was subjected to autoclaved sterilization at 121° C. for 15 minutes after being completely dissolved for later use.
(§12) Colombian blood agar solid culture medium: 39.0 g of Colombian blood agar solid culture medium was accurately weighed, heated, and dissolved in 1000 mL of double distilled water, and the culture medium was subjected to autoclaved sterilization at 121° C. for 15 minutes after being completely dissolved, naturally cooled to about 50° C. after the autoclaved sterilization, quickly added with 5% sterile deflbrinated sheep blood, mixed evenly, and then poured into a sterile dish while the mixture was hot.
(§13) Standard strains of Helicobacter pylori were taken out of a refrigerator at −80° C. and placed at room temperature, 200 μL of standard strains were accurately sucked, transferred to a solid culture medium, and spread with an L-shaped glass rod, a culture dish loaded with the strains was put into a culture bag, then an AnaeroPack was put into the culture bag, and the culture bag was quickly sealed and then put into a constant-temperature incubator at 37° C. to culture the strains for 72 hours. After the end of culture, the Helicobacter pylori was identified first, then a bacterial lawn on the solid culture medium was scraped off, and the bacterial lawn was transferred into 50 mL of liquid culture medium to serve as an original bacterial solution.
as §7, §8
(§14) (3) In preparation of bacterial solution, the Helicobacter pylori growing at a logarithmic phase on a solid plate was made into a bacterial suspension with a BHI culture medium, an OD600 value of concentration of the bacterial suspension was adjusted to be 0.3 (1×10^8 CFU/mL), and then the bacterial suspension was diluted 10 times to reach 1×10^7 CFU/mL for later use.
as §9, §10

[6] = tested on: Helicobacter pylori H. pylori 129; assay: Determination of MIC (microdilution); settings: 72 hours of culture, R = drug-resistant strain
Protocol: as §5, §11, §12, §13, §7, §8, §14, §9, §10

`O=c1[nH]cc(F)c(=O)[nH]1` [5-Fluorouracil, reference compound] was tested, and the IC50 ([1]; Homo sapiens, HT-29) was 12.87 ± 0.04 µM and the IC50 ([2]; Homo sapiens, HepG2) was 4.82 ± 0.07 µM.

With `C[C@@H]1[C@H](O)[C@@H](C)/C=C/C=C/C=C/C=C/C=C/C=C/C=C/[C@H](O[C@@H]2O[C@H](C)[C@@H](O)[C@H](N)[C@@H]2O)C[C@@H]2O[C@](O)(C[C@@H](O)C[C@@H](O)[C@H](O)CC[C@@H](O)C[C@@H](O)CC(=O)O[C@H]1C)C[C@H](O)[C@H]2C(=O)O` [AMB, amphotericin B, reference compound] the “AMB MIC, separate use” value (Candida albicans SC5314; SC5314, AMB alone) was 2 µg/mL and the “AMB MIC, separate use” value (Candida albicans C5; C5, AMB alone) was 2 µg/mL.

In the case of `N.N.O=C([O-])C1(C(=O)[O-])CCC1.[Pt+2]` [Carboplatin, reference compound], the IC50 [3] is reported as > 40 µM.

In the case of `COC(=O)C12CCC(C)(CC3C(=O)C45C(O)C3CCC4C34COC5(O)C(O)C3C(C)(C)CCC4O)C(C)=C1C1=CCC3C4(C)CC(O)C(O)C(C)(C)C4CCC3(C)C1(C)CC2` (centres unmarked) [Compound 1, Bisicacinol B], the “cytotoxic activity in words, MIA PaCa-2” value [4] is reported as “strong activity”, the IC50 [4] is reported as 13.1 ± 0.18 µM and the “cytotoxic activity in words, A549” value [3] is reported as “strong activity”. The IC50 [3] was 4.2 ± 0.24 µM, the “inhibitory effect on growth in words, used separately” value (Candida albicans SC5314; Candida albicans SC5314, compound alone) was “no significant inhibitory effect” and the “Compound 1 MIC, combined use” value (Candida albicans SC5314; SC5314, combined with AMB) was 1 µg/mL. For the same compound, the “FICI index after combination” value (Candida albicans SC5314; SC5314, compound 1 + AMB) was ≤0.078, the “Compound 1 MIC, separate use” value (Candida albicans SC5314; SC5314, compound 1 alone) was >32 µg/mL and the “MIC + 0.5 μg/ml AMB” value (Candida albicans SC5314; SC5314, compound 1 with 0.5 μg/ml AMB) was 1 µg/mL. For the same compound, the “Compound 1 MIC, combined use” value (Candida albicans C5; C5, combined with AMB) was 1 µg/mL, the “FICI index after combination” value (Candida albicans C5; C5, compound 1 + AMB) was ≤0.078 and the “Compound 1 MIC, separate use” value (Candida albicans C5; C5, compound 1 alone) was >32 µg/mL. For the same compound, the “MIC + 0.5 μg/ml AMB” value (Candida albicans C5; C5, compound 1 with 0.5 μg/ml AMB) was 1 µg/mL, the “inhibitory effect on growth in words, used separately” value (Candida albicans C5; Candida albicans C5, compound alone) was “no significant inhibitory effect” and the “MIC, H. pylori G27” value [5] was 16 µg/mL (≈ 18.8 µM). For the same compound, the “MIC, H. pylori 129” value [6] was 32 µg/mL (≈ 37.7 µM), the “cytotoxic activity in words, HT-29” value [1] was “strong activity” and the IC50 [1] was 14.95 ± 0.14 µM. For the same compound, the “cytotoxic activity in words, HepG2” value [2] was “strong activity” and the IC50 [2] was 14.84 ± 0.12 µM.

`COC(=O)C12CCC(C)(CC3C(=O)C45C(O)C3CCC4C34COC5(O)C(O)C3C(C)(C)CCC4O)C(C)=C1C1=CCC3C4(C)CC(O)C(O)C(C)(C)C4CCC3(C)C1(C)CC2` (centres unmarked) [Compound 2, Bisicacinol C] was tested, and the IC50 [4] was > 40 µM, the “cytotoxic activity in words, A549” value [3] was “strong inhibitory activity” and the IC50 [3] was 23.1 ± 0.12 µM. For the same compound, the “MIC, H. pylori G27” value [5] was 16 µg/mL (≈ 18.8 µM), the “MIC, H. pylori 129” value [6] was 32 µg/mL (≈ 37.7 µM) and the “cytotoxic activity in words, HT-29” value [1] was “strong inhibitory activity”. The IC50 [1] was 33.35 ± 0.06 µM and the IC50 [2] was > 40 µM.

For `Cc1ncc([N+](=O)[O-])n1CCO` [MTZ, metronidazole, reference compound], the MIC ([5]; Helicobacter pylori) was 2 µg/mL (≈ 11.7 µM) and the MIC ([6]; Helicobacter pylori) was 8 µg/mL (≈ 46.7 µM).
